Columns and labels:
[1] = test system: CRE::Luc reporter; assay: CRE-Luc luciferase assay in U2OS cells; assay type: cell-based
Experimental: At 60-80% confluence and >90% viability, the U2OS cells in the T-75 flask were washed twice with 6 ml phosphate-buffered saline (PBS) and subsequently treated with 4 ml of TrypLE™ Express trypsin replacement solution for 10 minutes. A Greiner Bio-One 96 Well Plate (white, TC treated), was then seeded at 8000 cells per well. Following 24 hours, the cells were transfected at 50-70% confluency with CRE-luc Vector generated in-house with Viafect transfection reagent at 1:4 ratio (100 ng DNA/well) following manufacturers recommendations.
24 hours after transfection, the medium in the 96 well plate was changed to a serum-free medium with 1 mM luciferin. The cells were then incubated in serum starvation conditions for 6-8 hours, this was optimised to yield the greatest signal strength and lowest noise when assayed with forskolin control. Following the incubation period, the CRE-Luc U2OS cells were treated with the appropriate drug and their luminescence values were measured after 6 hours in the BMG FLUOstar OPTIMA Microplate Reader. […] Unless stated otherwise, forskolin was used as a positive control, and 1% DMSO was used as a negative control.

[2] = test system: CREB; assay: CREB phosphorylation in U2OS cells; assay type: cell-based
[3] = test system: Bmal1::Luc reporter U2OS cells; assay: Bmal1::Luc reporter U2OS cells circadian rhythm; assay type: cell-based; details: 10 uM
[4] = test system: STAR-PROM plasmid library; assay: STAR-PROM transcription factor screening in U2OS cells; assay type: cell-based
Experimental: This was conducted as previously reported in Gerber et al., Cell. […] Briefly, U2OS cells were cultured in 6-well plates and transfected with 1 ug of the STAR-PROM plasmid library (library structure as in above reference). RNA was extracted at set time points and sequenced for the barcoded luciferase constructs and analysed with Galaxy (https://use.galaxy.org).

[5] = test system: Fos; assay: Fos mRNA after drug treatment; assay type: cell-based; details: 10 uM
Experimental: (§1) Total RNA was extracted using the microRNeasy column method (Qiagen, Hilden, Germany). Quality and quantity of RNA were measured using an Agilent Bioanalyzer and a Nanodrop1000 (Thermo Fisher Scientific, Waltham, MA USA), respectively.
(§2) RNA samples were prepared as described for microarray hybridisation. cDNA was synthesized with a qScript cDNA synthesis kit (Quanta Biosciences, Gaithersburg, MD), and quantitative PCR (qPCR) was conducted with Sybr green I and an SDS7700 thermal cycler (Applied Biosystems, Foster City, CA). Relative quantification of transcript levels was done as described previously (Peirson et al., Nucleic Acids Res. 2003 Jul. 15; 31(14):e73.). The geometric mean of a minimum of three housekeeping genes was used for normalization (Gapdh, ActB, GusB and Rps9 for example).

[6] = test system: cJun; assay: cJun mRNA after drug treatment; assay type: cell-based; details: 10 uM
Experimental: as §1, §2

[7] = test system: Per2::Luc SCN slice cultures; assay: Per2::Luc SCN slice culture; assay type: cell-based, mice; details: isolated Per2::Luc SCN slice cultures
Description: SCN Tissue Collection: Animals were housed under a 12:12 LD cycle for 2 weeks with food and water ad libitum. Animals then received either a drug injection with a alteration in the light dark cycle as described in the experiment and at set points following drug administration were sacrificed by cervical dislocation. Sham-treated mice not given a light pulse were dissected at each time point. Brains were removed and placed into a brain matrix (Kent Scientific, Torrington CT, USA). Per2::Luc transgenic animals (as reported in Yoo et al, Proc Natl Acad Sci USA. 2004 Apr. 13; 101(15):5339-46) were obtained from Prof Joseph Takahashi, Northwestern University.
For SCN slice culture: The brain was gently cut into a cube preserving the integrity of the SCN and cut into […] slices in ice-cold oxygenated Hanks Balanced Salt Solution containing 100 nM MK801 (Sigma-Aldrich). The SCN was microdissected and transferred to membrane filter (Millicell Cell Culture Insert, 30 mm, hydrophilic PTFE, 0.4 μm, Millipore) and cultured in 300 uL DMEM prepared as detailed in the Per2::Luc Assay.

[8] = test system: C57Bl/6 mice; assay: Phase shifting of circadian activity by drug (running wheel); assay type: in vivo
Experimental: Animals were housed under a reversed 12:12 LD cycle (400 lux from white LED lamps) with food and water ad libitum. For phase-shifting studies, C57Bl/6 mice were maintained on running wheels in light tight chambers on a 12:12 LD cycle (400 lux from white LED lamps) and injected with drug at the indicated time points. The drugs were formulated in a vehicle consisting of 5% Koliphor-HS15 (Sigma-Aldrich, UK) 5% Cyclodextran (Sigma-Aldrich, UK) in 0.9% saline. This vehicle was warmed to 37° C. and the indicated drugs kept at a 100× stock in DMSO and mixed at the appropriate concentration to be administered at approximately 300 ul intraperitoneal injection (n=6 to 10). Where the time point of injection was in the dark, the procedure was conducted under dim red light. Where measuring phase-shifting, the mice were then placed in DD and allowed to free run for 14 days in DD, running wheel activity data was collected and analysed on Clocklab (Actimetrics, Wilmette, IL). For jet-lag studies, mice were maintained on running wheels in light tight chambers on a 12:12 LD cycle (400 lux from white LED lamps) and injected with drugs as above at ZT6 and the LD cycle was shifted 6 hours in advance. The onset of activity on each day was used to measure phase relative to the LD cycle.
Phase Shifting: C57Bl/6 male mice (80 days or older) were maintained on running wheels in light tight chambers on a 12:12 LD cycle (100 lux from white LED lamps) on stable entrainment, were released in complete darkness. At set times as indicated in the experiments, the animals received an intraperitoneal injection (300 ul) of drug constituted in sterile saline with 5% Cyclodextrin (Sigma-Aldrich) and 5% Koliphor (Sigma-Aldrich) and then allowed to free run in DD, running wheel activity data were collected and analysed on Clocklab (Actimetrics, Wilmette, IL).

## Nc1nc(-c2ccccc2)c2c(n1)-c1cc(OCCN3CCOCC3)ccc1C2=O [JNJ40255293, 2-amino-8-[2-(4-morpholinyl)ethoxy]-4-phenyl-5H-indeno[1,2-d]pyrimidin-5-one]
[1]
  CREB-driven transcription (CRE::Luc reporter): does not increase signals from the CRE::Luc reporter
[2]
  CREB phosphorylation: no changes in CREB phosphorylation
[3]
  period length: increases in period length
  rhythms after washout of drug: revert to normal rhythms after washout of drug
[4]; BC-STARPROM, 30 uM
  clones with significantly increased reporter signal: 8 clones
[4]; isolated clone3
  response of clone3 reporter: responded
[5]
  Fos mRNA: Upregulation
[6]
  cJun mRNA: Upregulation
[7]
  period length: increased period length
[8]; 5 mg/kg intraperitoneal, 6 h after the onset of light (ZT6), then constant dark
  phase shift of circadian activity: induced a phase advance
[8]; 5 mg/kg, administered at CT16, constant dark
  phase shift of circadian activity: resulted in a phase delay
[8]; difference between onset pre and post injection
  phase shifts compared with other agents (FIG. 9A): causes the largest phase shifts

— patent US11931374B2, “Adenosine receptor modulators for the treatment of circadian rhythm disorders” (OXFORD UNIVERSITY INNOVATION LIMITED, priority 2016, dated 2024)
